Test results: US5422344A, “Method of treating retroviral infections in mammals” (The United States of America as represented by the …, priority 1990, dated 1995)
“Also recorded” adds a separate entry of the source.

Columns and labels:
[1] = tested on: H9 cells; assay: Cell number, viability (trypan blue dye exclusion) and growth of H9 cells; format: cell-based
[2] = tested on: HIV-IIIB (HIV-1) replication in H9 cells; assay: HIV replication (RT activity) in acute infection of H9 cells; format: cell-based; conditions: for effect on HIV replication: non-cytotoxic doses of topo II inhibitors added during HIV infection
Description: HIV-Acute Infection of H9 Cells by HIV and Drug Treatment: One ml of culture supernatant of H9/HIV-IIIB cells (10^6 /ml) was used after centrifugation (200xg, 20 min) and filtration (0.45 μm) for infecting 10^5 H9 cells in the presence or absence of different levels of CPT, m-AMSA or VP-16. Control cells received equivalent volumes of DMSO. The cells were incubated for 1 h at 37° C., pelleted, washed and resuspended in fresh media. […] (1981) J. Virol. 38: 239-48.
CPT Inhibition of HIV Replication Following Acute Infection of H9 Cells with HIV-IIIB. In order to determine appropriate concentrations of CPT which would permit cell viability and growth while inhibiting viral infection or replication, H9 cells were infected with HIV-IIIB as described above in the absence or presence of different CPT doses. The cells were incubated for 1 h at 37° C., pelleted, washed and resuspended in fresh media. Reverse transcriptase (RT) activity in the culture media was measured seven days after infection.
Since CPT is an anticancer drug and a known topo I inhibitor, its effects on HIV replication were compared to those of other anticancer drugs which are known to inhibit the related topoisomerase II enzyme.

[3] = tested on: HIV; conditions: chronically infected cell lines; cited from earlier work
[4] = tested on: HIV; conditions: cited from earlier work
[5] = 0.5 μM VP16, day 6 post-infect.
[6] = 0.5 μM VP16, day 7 post-infect.
[7] = 0.5 μM VP16, day 8 post-infect.
[8] = 0.5 μM VP16, day 9 post-infect.
[9] = 1.5 μM VP16, day 6 post-infect.
[10] = 1.5 μM VP16, day 7 post-infect.
[11] = 1.5 μM VP16, day 8 post-infect.
[12] = 1.5 μM VP16, day 9 post-infect.
[13] = 0.4 μM m-Amsa, day 6 post-infect.
[14] = 0.4 μM m-Amsa, day 7 post-infect.
[15] = 0.4 μM m-Amsa, day 8 post-infect.
[16] = 0.4 μM m-Amsa, day 9 post-infect.
[17] = 1 μM m-Amsa, day 6 post-infect.
[18] = 1 μM m-Amsa, day 7 post-infect.
[19] = 1 μM m-Amsa, day 8 post-infect.
[20] = 1 μM m-Amsa, day 9 post-infect.

In the case of COc1cc(C2c3cc4c(cc3C(OC3OC5COC(C)OC5C(O)C3O)C3COC(=O)C23)OCO4)cc(OC)c1O (stereo not shown) [VP-16], the “No. Cells” value [1, 5] is reported as 1 × 10^6, the “No. Cells” value [1, 6] is reported as 1.6 × 10^6 and the “No. Cells” value [1, 7] is reported as 2.4 × 10^6. The “No. Cells” value [1, 8] was 3 × 10^6, the “No. Cells” value [1, 9] was 1 × 10^6 and the “No. Cells” value [1, 10] was 2 × 10^6. The “No. Cells” value [1, 11] was 2.4 × 10^6, the “No. Cells” value [1, 12] was 4 × 10^6 and the RT/Cell [2, 5] was 26283 cpm/10^5 cells. For the same molecule, the RT/Cell [2, 6] was 26143 cpm/10^5 cells, the RT/Cell [2, 7] was 29158 cpm/10^5 cells and the RT/Cell [2, 8] was 25183 cpm/10^5 cells. For the same molecule, the RT/Cell [2, 9] was 32242 cpm/10^5 cells, the RT/Cell [2, 10] was 33626 cpm/10^5 cells and the RT/Cell [2, 11] was 30675 cpm/10^5 cells. The RT/Cell [2, 12] was 29194 cpm/10^5 cells and the “effect on HIV replication” value [2] was “No effect on HIV replication was observed; also recorded: do not have any significant effect on HIV replication”.
With COc1cc(NS(C)(=O)=O)ccc1Nc1c2ccccc2nc2ccccc12 [m-AMSA] the “No. Cells” value [1, 13] was 4 × 10^5, the “No. Cells” value [1, 14] was 9 × 10^5 and the “No. Cells” value [1, 15] was 1.3 × 10^6. For the same molecule, the “No. Cells” value [1, 16] was 2 × 10^6, the “No. Cells” value [1, 17] was 4 × 10^5 and the “No. Cells” value [1, 18] was 7.5 × 10^5. For the same molecule, the “No. Cells” value [1, 19] was 1.1 × 10^6, the “No. Cells” value [1, 20] was 2 × 10^6 and the RT/Cell [2, 13] was 36070 cpm/10^5 cells. The RT/Cell [2, 14] was 25372 cpm/10^5 cells, the RT/Cell [2, 15] was 38594 cpm/10^5 cells and the RT/Cell [2, 16] was 37556 cpm/10^5 cells. The RT/Cell [2, 17] was 32674 cpm/10^5 cells, the RT/Cell [2, 18] was 40057 cpm/10^5 cells and the RT/Cell [2, 19] was 45558 cpm/10^5 cells. For the same molecule, the RT/Cell [2, 20] was 36442 cpm/10^5 cells, the “effect on HIV replication” value [2] was “do not have any significant effect on HIV replication” and the “effect on HIV replication” value ([2]; listed as m-Amsa) was “No effect on HIV replication was observed”.
For interferon α, the “suppression of HIV expression” value [3] is listed as “reported to suppress HIV expression in chronically infected cell lines”.
In the case of Cc1cn(C2CC(N=[N+]=[N-])C(CO)O2)c(=O)[nH]c1=O (stereo not shown) [AZT], the “block of HIV infection at cell surface or at the level of reverse transcriptase” value [4] is listed as “known to block HIV infection”.
